According to ChEMBL document CHEMBL4699547, “Design, synthesis, and multitargeted profiling of N-benzylpyrrolidine derivatives for the treatment of Alzheimer's disease” (Bioorg Med Chem, 2020):
Calls of active or inactive are those of the source. The rule behind the calls is not given here.

Tests used:
Acetylcholinesterase [1] = biological target: T1, Acetylcholinesterase (Homo sapiens, UniProt P22303); experiment: Inhibition of human AChE by Ellman's method
Cholinesterase [2] = biological target: T2, Cholinesterase (Homo sapiens, UniProt P06276); experiment: Inhibition of human BChE by Ellman's method
T2 sequence (P06276 whole entry): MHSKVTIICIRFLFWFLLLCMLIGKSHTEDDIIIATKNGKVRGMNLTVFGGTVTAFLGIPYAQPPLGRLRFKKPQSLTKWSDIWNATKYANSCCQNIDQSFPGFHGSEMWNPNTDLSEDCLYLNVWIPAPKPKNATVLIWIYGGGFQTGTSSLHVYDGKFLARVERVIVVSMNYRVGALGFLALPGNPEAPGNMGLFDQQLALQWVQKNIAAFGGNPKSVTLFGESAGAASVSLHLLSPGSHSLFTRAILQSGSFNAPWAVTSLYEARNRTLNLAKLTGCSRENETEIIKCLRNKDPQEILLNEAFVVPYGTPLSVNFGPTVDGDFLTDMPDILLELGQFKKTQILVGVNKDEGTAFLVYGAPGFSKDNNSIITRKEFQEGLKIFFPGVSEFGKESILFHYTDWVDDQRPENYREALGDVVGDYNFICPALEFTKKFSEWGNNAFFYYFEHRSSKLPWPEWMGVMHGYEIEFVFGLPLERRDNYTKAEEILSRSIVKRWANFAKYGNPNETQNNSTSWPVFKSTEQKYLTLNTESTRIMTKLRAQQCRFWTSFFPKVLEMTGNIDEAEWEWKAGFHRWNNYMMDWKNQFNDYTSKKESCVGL

Beta-secretase 1 = Beta-secretase 1 (Homo sapiens, UniProt P56817); experiment: Inhibition of human BACE-1 by FRET assay
Chain of Beta-secretase 1 (P56817 whole entry): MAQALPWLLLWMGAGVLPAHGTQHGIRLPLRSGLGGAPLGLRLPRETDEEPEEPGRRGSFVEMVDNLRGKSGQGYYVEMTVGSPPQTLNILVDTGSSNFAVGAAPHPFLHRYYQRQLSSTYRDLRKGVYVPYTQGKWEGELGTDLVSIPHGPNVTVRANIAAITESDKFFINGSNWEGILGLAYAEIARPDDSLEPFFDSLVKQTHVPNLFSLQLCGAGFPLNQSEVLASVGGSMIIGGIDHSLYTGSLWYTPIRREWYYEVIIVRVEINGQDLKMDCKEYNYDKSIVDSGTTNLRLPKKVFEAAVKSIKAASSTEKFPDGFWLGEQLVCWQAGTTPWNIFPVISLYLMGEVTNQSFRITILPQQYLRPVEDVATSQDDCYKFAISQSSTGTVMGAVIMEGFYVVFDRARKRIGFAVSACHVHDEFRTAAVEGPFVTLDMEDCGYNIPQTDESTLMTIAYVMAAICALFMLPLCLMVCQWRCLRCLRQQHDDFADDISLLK

[3] = Permeability of the compound at 25 ug/ml after 18 hrs by PAMPA-BBB assay
Cholinesterase [4] = biological target: Cholinesterase (Equus caballus, UniProt P81908); experiment: Inhibition of equine serum BuChE by Ellman's method
Chain of Cholinesterase (Equus caballus, UniProt P81908) (P81908 whole entry): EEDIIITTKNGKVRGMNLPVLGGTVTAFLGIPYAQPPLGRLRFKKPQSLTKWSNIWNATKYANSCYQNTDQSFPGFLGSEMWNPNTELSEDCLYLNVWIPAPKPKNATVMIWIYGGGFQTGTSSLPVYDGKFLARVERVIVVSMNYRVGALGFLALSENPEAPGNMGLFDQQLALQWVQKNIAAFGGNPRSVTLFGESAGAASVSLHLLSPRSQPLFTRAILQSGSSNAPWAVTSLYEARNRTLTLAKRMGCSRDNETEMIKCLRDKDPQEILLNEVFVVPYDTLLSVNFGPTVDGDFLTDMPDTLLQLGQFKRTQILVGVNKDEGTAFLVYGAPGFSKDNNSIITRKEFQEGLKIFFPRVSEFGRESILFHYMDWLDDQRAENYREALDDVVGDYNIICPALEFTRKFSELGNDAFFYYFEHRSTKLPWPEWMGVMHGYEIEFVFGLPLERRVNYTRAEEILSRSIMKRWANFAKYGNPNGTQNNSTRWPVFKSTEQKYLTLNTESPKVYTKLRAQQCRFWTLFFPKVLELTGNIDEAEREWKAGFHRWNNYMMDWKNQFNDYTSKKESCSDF

Cholinesterase [5] = biological target: T2, Cholinesterase; experiment: Inhibition of BChE (unknown origin)
Rattus norvegicus [6] = experiment: Cognitive enhancing effect in scopolamine-induced Wistar rat model of amnesia assessed as effect on total arm entries at 5 mg/kg, po pretreated for 7 days followed by scopolamine challenge by Y-maze test; format: functional, organism-based; details: time 7.0 day
Rattus norvegicus [7] = species on record: Rattus norvegicus; details: Wistar, dose 5.0 mg/kg, time 7.0 day
Acetylcholinesterase [8] = biological target: T1, Acetylcholinesterase; experiment: Mixed type inhibition of human AChE assessed as decrease in Vmax using varying level of acetylthiocholine iodide as substrate by Lineweaver-Burk plot analysis
Acetylcholinesterase [9] = biological target: T1, Acetylcholinesterase; experiment: Mixed type inhibition of human AChE assessed as increase in Km using varying level acetylthiocholine iodide as substrate by Lineweaver-Burk plot analysis
Acetylcholinesterase [10] = biological target: T1, Acetylcholinesterase; experiment: Mixed type inhibition of human AChE assessed as dissociation constant using varying level acetylthiocholine iodide as substrate by Dixon plot analysis
SH-SY5Y = experiment: Neuroprotective activity against amyloid beta (1 to 42)-induced oxidative stress in human SH-SY5Y cells assessed as effect on cell viability at 10 to 80 uM measured after 24 hrs by MTT assay (reference value: 62.1 %); format: functional; details: dose microM 10-80
[11] = Acute toxicity in Wistar rat assessed as abnormal signs at 175 to 1750 mg/kg, po measured up to 14 days by OCED guideline method; format: organism-based; details: in vivo, 336 h, dose 175-1750 mg/kg, time <=14 day
[12] = Acute toxicity in po dosed Wistar rat assessed as maximum tolerated dose by OCED guideline method; format: organism-based; details: in vivo
Rattus norvegicus [13] = experiment: Cognitive enhancing effect in po dosed scopolamine-induced Wistar rat model of amnesia assessed as increase in spontaneous alteration pretreated for 7 days followed by scopolamine challenge by Y-maze test; format: functional, organism-based; details: dose mg/kg 5-10, time 7.0 day
Rattus norvegicus [14] = experiment: Cognitive enhancing effect in scopolamine-induced Wistar rat model of amnesia assessed as increase in spontaneous alteration at 10 mg/kg, po pretreated for 7 days followed by scopolamine challenge by Y-maze test; format: functional, organism-based; details: time 7.0 day
Rattus norvegicus [15] = experiment: Cognitive enhancing effect in scopolamine-induced Wistar rat model of amnesia assessed as effect on total arm entries at 10 mg/kg, po pretreated for 7 days followed by scopolamine challenge by Y-maze test; format: functional, organism-based; details: time 7.0 day
Rattus norvegicus [16] = experiment: Ex vivo inhibition of AChE in brain of scopolamine-induced Wistar rat model of amnesia at 2.5 to 10 mg/kg, po pretreated for 7 days followed by scopolamine challenge using acetylthiocholine iodide as substrate by Ellman's method; format: functional, organism-based; details: dose mg/kg 2.5-10, time 7.0 day
Rattus norvegicus [17] = experiment: Antioxidant activity in scopolamine-induced Wistar rat model of amnesia assessed as decrease in MDA level at 2.5 to 10 mg/kg, po pretreated for 7 days followed by scopolamine challenge […]; format: functional, organism-based; details: dose mg/kg 2.5-10, time 7.0 day
Rattus norvegicus [18] = experiment: Antioxidant activity in scopolamine-induced Wistar rat model of amnesia assessed as increase in SOD level at 2.5 to 10 mg/kg, po pretreated for 7 days followed by scopolamine challenge […]; format: functional, organism-based; details: dose mg/kg 2.5-10, time 7.0 day
Rattus norvegicus [19] = experiment: (§1) Improvement in learning and spatial memory in icv infused amyloid beta (1 to 42)-induced rat model of Alzheimer's disease assessed as reduction in escape latency at 10 mg/kg, po administered for 9 consecutive days starting from 7 days post surgery and measured daily for 5 days by Morris water maze test; format: functional, organism-based; details: time 9.0 day
Rattus norvegicus [20] = experiment: as §1, with “increase” for “reduction”, “number of platform crossing” for “escape latency”; format: functional, organism-based; details: time 9.0 day
[21] = Cmax in Wistar rat at 10 mg/kg, po measured up to 48 hrs; format: ADME, organism-based; set-up: route oral, dose 10 mg/kg, time <=48; details: in vivo
[22] = Tmax in Wistar rat at 10 mg/kg, po measured up to 48 hrs; format: ADME, organism-based; details: in vivo
[23] = AUC (0 to 48 hrs) in Wistar rat at 10 mg/kg, po measured up to 48 hrs; format: ADME, organism-based; set-up: route oral, dose 10 mg/kg, time <=48; details: in vivo
[24] = Half life in Wistar rat at 10 mg/kg, po measured up to 48 hrs; format: ADME, organism-based; details: in vivo
[25] = MRT in Wistar rat at 10 mg/kg, po measured up to 48 hrs; format: ADME, organism-based; details: in vivo
Rattus norvegicus [26] = experiment: Cognitive enhancing effect in scopolamine-induced Wistar rat model of amnesia assessed as effect on total arm entries at 2.5 to 10 mg/kg, po pretreated for 7 days followed by scopolamine challenge by Y-maze test; format: functional, organism-based; details: dose mg/kg 2.5-10, time 7.0 day

T1 sequence (P22303 whole entry): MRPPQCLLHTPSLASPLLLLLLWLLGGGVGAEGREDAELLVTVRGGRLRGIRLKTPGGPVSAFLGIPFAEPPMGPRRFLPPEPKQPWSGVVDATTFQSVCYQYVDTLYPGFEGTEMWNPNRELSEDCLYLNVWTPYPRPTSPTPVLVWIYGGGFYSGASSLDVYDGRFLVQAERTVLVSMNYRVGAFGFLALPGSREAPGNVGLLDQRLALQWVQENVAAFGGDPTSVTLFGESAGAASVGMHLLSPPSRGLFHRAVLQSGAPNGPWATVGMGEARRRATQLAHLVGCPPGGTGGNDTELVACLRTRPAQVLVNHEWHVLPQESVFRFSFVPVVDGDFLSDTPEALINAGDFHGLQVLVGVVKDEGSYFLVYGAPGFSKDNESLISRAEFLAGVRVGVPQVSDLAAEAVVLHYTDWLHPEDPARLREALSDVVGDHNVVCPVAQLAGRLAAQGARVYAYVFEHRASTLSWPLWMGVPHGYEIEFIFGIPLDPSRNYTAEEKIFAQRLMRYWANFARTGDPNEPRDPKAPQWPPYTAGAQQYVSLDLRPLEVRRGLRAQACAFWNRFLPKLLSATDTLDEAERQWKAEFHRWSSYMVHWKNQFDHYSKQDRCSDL

Row | Structure (SMILES) | IC50 (Acetylcholinesterase [1]) | IC50 (Cholinesterase [2]) | IC50 (Beta-secretase 1) | also measured
1 | COc1cccc(/C=N\C2CCN(Cc3ccccc3)C2)c1OC (stereo not drawn) | > 10000 nM | 4270 nM | – | –
2 | FC(F)(F)Oc1ccc(/C=N\C2CCN(Cc3ccccc3)C2)cc1 (stereo not drawn) | 864 nM | 695 nM | 2090 nM | –
3 | FC(F)(F)c1ccc(CNC2CCN(Cc3ccccc3)C2)cc1 (stereo not drawn) | 128 nM | 968 nM | 975 nM | Papp at 18 h, 25 ug/ml [3]: 6.3 ×10⁻⁶ cm/s
4 | Cc1c(OCc2ccccc2)cccc1N1CCN(CCNC2CCN(Cc3ccccc3)C2)CC1 (stereo not drawn) | – | – | – | IC50 (Cholinesterase [4]): 7780 nM
5 | c1ccc(CC2CCCN(CCNC3CCN(Cc4ccccc4)C3)C2)cc1 (stereo not drawn) | – | – | – | IC50 (Cholinesterase [5]): 1840 nM
6 | COc1cc2c(cc1OC)C(=O)C(CC1CCN(Cc3ccccc3)CC1)C2 (stereo not drawn) | – | – | – | Activity (Rattus norvegicus [6]): inactive; inhibition (Rattus norvegicus [7]): Active
7 | Cc1ccc(/C=N\C2CCN(Cc3ccccc3)C2)cc1 (stereo not drawn) | > 10000 nM | 4860 nM | – | –
8 | Cc1cccc(/C=N\C2CCN(Cc3ccccc3)C2)c1 (stereo not drawn) | > 10000 nM | 5790 nM | – | –
9 | O=[N+]([O-])c1ccc(/C=N\C2CCN(Cc3ccccc3)C2)cc1 (stereo not drawn) | 2460 nM | 2350 nM | 3780 nM | –
10 | Oc1ccccc1CNC1CCN(Cc2ccccc2)C1 (stereo not drawn) | 2260 nM | 2730 nM | 2370 nM | –
11 | Oc1ccc(/C=N\C2CCN(Cc3ccccc3)C2)c(O)c1 (stereo not drawn) | 3680 nM | 3280 nM | 4430 nM | –
12 | Oc1ccccc1/C=N\C1CCN(Cc2ccccc2)C1 (stereo not drawn) | > 10000 nM | 4150 nM | – | –
13 | Brc1ccc(CNC2CCN(Cc3ccccc3)C2)cc1 (stereo not drawn) | 133 nM | 758 nM | 648 nM | Papp at 18 h, 25 ug/ml [3]: 5.1 ×10⁻⁶ cm/s
14 | Clc1ccc(CNC2CCN(Cc3ccccc3)C2)cc1 (stereo not drawn) | 178 nM | 265 nM | 163 nM | Papp at 18 h, 25 ug/ml [3]: 4.1 ×10⁻⁶ cm/s
15 | Fc1ccc(/C=N\C2CCN(Cc3ccccc3)C2)cc1 (stereo not drawn) | 1070 nM | 1050 nM | 1960 nM | –
16 | FC(F)(F)Oc1ccc(CNC2CCN(Cc3ccccc3)C2)cc1 (stereo not drawn) | 58 nM | 82 nM | 115 nM | inhibition (Acetylcholinesterase [8]): Active; inhibition (Acetylcholinesterase [9]): Active; Ki (Acetylcholinesterase [10]): 23 nM; Papp at 18 h, 25 ug/ml [3]: 6.9 ×10⁻⁶ cm/s; Activity (SH-SY5Y): 71.5%; Activity [11]: Non-Toxic; MTD [12]: 750 mg/kg; Activity (Rattus norvegicus [13]): Dose-dependent effect; Activity (Rattus norvegicus [14]): Active; Activity (Rattus norvegicus [15]): inactive; inhibition (Rattus norvegicus [16]): Active; Activity (Rattus norvegicus [17]): Active; Activity (Rattus norvegicus [18]): Active; Activity (Rattus norvegicus [19]): Active; Activity (Rattus norvegicus [20]): Active; Cmax [21]: 272 ng/mL; Tmax [22]: 3.3 h; AUC(0-t) [23]: 5460 ng·h/mL; half-life [24]: 15.7 h; MRT [25]: 22.7 h
17 | c1ccc(CNC2CCN(Cc3ccccc3)C2)cc1 (stereo not drawn) | 1130 nM | 1570 nM | 2420 nM | –

Row | Structure (SMILES) | IC50 (Acetylcholinesterase [1]) | IC50 (Cholinesterase [2]) | IC50 (Beta-secretase 1) | also measured
18 | Fc1ccc(CNC2CCN(Cc3ccccc3)C2)c(F)c1 (stereo not drawn) | 69 nM | 127 nM | 97 nM | Papp at 18 h, 25 ug/ml [3]: 5.8 ×10⁻⁶ cm/s; Activity (SH-SY5Y): 66.8%; Activity [11]: Non-Toxic; MTD [12]: 1750 mg/kg; Activity (Rattus norvegicus [13]): Dose-dependent effect; Activity (Rattus norvegicus [14]): Active; Activity (Rattus norvegicus [26]): inactive; inhibition (Rattus norvegicus [16]): Active; Activity (Rattus norvegicus [17]): Active; Activity (Rattus norvegicus [18]): Active
19 | Cc1cccc(CNC2CCN(Cc3ccccc3)C2)c1 (stereo not drawn) | > 10000 nM | 2970 nM | – | –
20 | Clc1ccc(/C=N\C2CCN(Cc3ccccc3)C2)cc1 (stereo not drawn) | 1240 nM | 1180 nM | 1260 nM | –
21 | Fc1ccc(/C=N\C2CCN(Cc3ccccc3)C2)c(F)c1 (stereo not drawn) | 965 nM | 1390 nM | 2650 nM | –
22 | Cc1ccc(CNC2CCN(Cc3ccccc3)C2)cc1 (stereo not drawn) | 6390 nM | 8750 nM | 2240 nM | –
23 | COc1cc(CNC2CCN(Cc3ccccc3)C2)cc(OC)c1OC (stereo not drawn) | 3130 nM | 3220 nM | 844 nM | –
24 | COc1cccc(CNC2CCN(Cc3ccccc3)C2)c1OC (stereo not drawn) | 4380 nM | 5460 nM | 2860 nM | –
25 | C(=N/C1CCN(Cc2ccccc2)C1)/c1ccccc1 (stereo not drawn) | 4120 nM | 2680 nM | 4380 nM | –
26 | Oc1ccc(CNC2CCN(Cc3ccccc3)C2)c(O)c1 (stereo not drawn) | 1520 nM | 2690 nM | 482 nM | –
27 | Oc1ccc(/C=N\C2CCN(Cc3ccccc3)C2)cc1 (stereo not drawn) | 5630 nM | 2360 nM | 4580 nM | –
28 | FC(F)(F)c1ccc(/C=N\C2CCN(Cc3ccccc3)C2)cc1 (stereo not drawn) | 1040 nM | 2150 nM | 683 nM | –
29 | Fc1ccc(CNC2CCN(Cc3ccccc3)C2)cc1 (stereo not drawn) | 149 nM | 791 nM | 824 nM | Papp at 18 h, 25 ug/ml [3]: 4.2 ×10⁻⁶ cm/s
30 | COc1cc(/C=N\C2CCN(Cc3ccccc3)C2)cc(OC)c1OC (stereo not drawn) | 7790 nM | 3500 nM | > 10000 nM | –
31 | Brc1ccc(/C=N\C2CCN(Cc3ccccc3)C2)cc1 (stereo not drawn) | 1300 nM | 1190 nM | 1750 nM | –
32 | Oc1ccc(CNC2CCN(Cc3ccccc3)C2)cc1 (stereo not drawn) | 1750 nM | 1930 nM | 968 nM | –
33 | O=[N+]([O-])c1ccc(CNC2CCN(Cc3ccccc3)C2)cc1 (stereo not drawn) | 741 nM | 1360 nM | 1810 nM | –
